# Measured values reported in patent US10538497B2, “Compounds as indoleamine 2,3-dioxygenase inhibitors” (Merck Sharp & Dohme Corp., priority 2015, dated 2020).
# How the values were obtained:
# [1] = biological target: T1, IDO1 (Homo sapiens (Human), UniProt P14902); experiment: IDO1 Enzyme Assay; details: HIS-tagged recombinant IDO1, 40 nM
# [2] = biological target: T1, IDO1; experiment: IDO1 Human Whole Blood Assay; assay type: cell-based; details: LPS and IFNγ 100 ng/mL, kynurenine by LC/MS/MS
# Experimental: IDO1 Human Whole Blood Assay
# LPS and IFNγ was prepared in RPMI to a 10× of final conc. (1000 ng/mL), final concentration is 100 ng/mL.
# Human whole blood was drawn in sodium heparin coated tubes from healthy internal donors. Two hundred fourty μL of blood was transferred to each of the wells of a v-bottom 96 well plate. Thirty μL of compound was transferred from intermediate dilution plate, and incubated for 15 min. […] from stimulants was then transferred to blood and mixed thoroughly. Plate was covered with breathable membrane and incubated at 37° C. for overnight (18 h).
# On day 2 isotope labeled standard of kunurenine and tryptophan was made in water at 10× concentration and 30 μL was added to the blood at 3 μM final concentration. The assay plates were centrifuged at 300×G for 10 min with no brake to separate plasma from red blood cells. Sixty μL of plasma samples was removed without disturbing red blood cells. Plasma was diluted with RPMI in 1:1 ratio and proteins were precipitated out with two volume of Acetonitrile. The plates was centrifuged at 4000×G for 60 min. Twenty μL of supernatant was carefully transferred to a 384 well plate contain 40 μL of 0.1% formic acid in water and analysed by LC/MS/MS.
# LC/MS/MS analyses were performed using Thermo Fisher's LX4-TSQ Quantum Ultra system. This system consists of four Agilent binary high-performance liquid chromatography (HPLC) pumps and a TSQ Quantum Ultra triple quadrupole MS/MS instrument. For each sample, 5 μL were injected onto an Atlantis T3 column column (2.1 mm×150 mm, 3 μm particle size) from Waters. The mobile phase gradient pumped at 0.8 mL/min was used to elute the analytes from the column at 25° C. The elution started at 0% B increasing linearly to 25% B at 6.5 min, holding at 25% for 1 min, re-equilibrating to 10 min. Mobile phase A consisted of 0.1% formic acid in water. Mobile phase B consisted of 0.1% of formic acid in acetonitrile. Data was acquired in positive mode using a HESI interface. The operational parameters for the TSQ Quantum Ultra instrument were a spray voltage of 4000 V, capillary temperature of 380° C., vaporizer temperature 400° C., shealth gas 60 arbitrary units, Aux gas 20 arbitrary units, tube lens 85 and collision gas 1.2 mTorr. SRM chromatograms of kynurenine (Q1: 209.2>Q3:94.0) and internal standard (Q1: 215.3>Q3:98.2) were collected for 90 sec. The peak area was integrated by Xcalibur Quan software. The ratios between the kynurenine generated in the reaction and 2D6-Kynurenine spiked-in internal standard were used to generate percentage inhibition and IC50 values. Compounds were titrated and IC50's were calculated by 4 parameter sigmoidal curve fitting formula.
# [3] = biological target: T1, IDO1; experiment: IDO1 Cellular Assay in Frozen HEK293 Cells Transiently Transfected with Human IDO1; assay type: cell-based; details: HEK293 cells transiently transfected with human IDO1; read-out: IDO1 HEK293 Cell Assay, IC50
# [4] = biological target: T1, IDO1; experiment: IDO1 Cellular Assay in Hela Cells Stimulated with IFNγ; assay type: cell-based; details: Hela cells stimulated with IFNγ 100 ng/mL; read-out: IDO1 HELA Cell Assay, IC50
# [5] = read-out: IDO1 Enzyme Assay, IC50
# T1 sequence (P14902 whole entry): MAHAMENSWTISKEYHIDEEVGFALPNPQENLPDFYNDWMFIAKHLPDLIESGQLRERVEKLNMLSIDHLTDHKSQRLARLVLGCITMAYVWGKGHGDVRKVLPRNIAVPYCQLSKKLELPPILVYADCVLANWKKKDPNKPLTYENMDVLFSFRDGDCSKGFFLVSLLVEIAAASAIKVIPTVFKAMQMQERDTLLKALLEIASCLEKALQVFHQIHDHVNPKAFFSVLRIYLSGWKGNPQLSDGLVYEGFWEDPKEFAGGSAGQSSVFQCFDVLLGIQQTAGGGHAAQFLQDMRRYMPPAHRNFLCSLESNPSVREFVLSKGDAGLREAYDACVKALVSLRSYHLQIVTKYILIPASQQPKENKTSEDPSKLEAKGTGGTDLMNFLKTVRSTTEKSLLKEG
SMILES,"IC50 [1, 5] [nM]",IC50 [2] [nM],IC50 [3] [nM],"IC50 ([1]; IDO1 Enzyme Assay, IC50, nM) [nM]",IC50 [4] [nM]
"O=C(CSc1nonc1/C(=N/O)Nc1ccc(F)c(Br)c1)N[C@@H]1C[C@@H](O)[C@@H](O)C1 [Example 144, 2-({4-[N-(3-bromo-4-fluorophenyl)-N′-hydroxycarbamimidoyl]-1,2,5-oxadiazol-3-yl}sulfanyl)-N-[(1s,3R,4S)-3,4-dihydroxycyclopentyl]acetamide]",75.8,3990,549,–,–
"ON=C(Nc1ccc(F)c(Br)c1)c1nonc1SCc1c[nH]cn1 [Example 159, N-(3-bromo-4-fluorophenyl)-N′-hydroxy-4-[(1H-imidazol-4-ylmethyl)sulfanyl]-1,2,5-oxadiazole-3-carboximidamide]",–,–,81.7,105,153
"ON=C(Nc1ccc(F)c(Br)c1)c1nonc1SCCF [Example 160, N-(3-bromo-4-fluorophenyl)-4-[(2-fluoroethyl)sulfanyl]-N′-hydroxy-1,2,5-oxadiazole-3-carboximidamide]",–,–,61,65.7,126
"CC#CCSc1nonc1C(=NO)Nc1ccc(F)c(Br)c1 [Example 161, N-(3-bromo-4-fluorophenyl)-4-(but-2-yn-1-ylsulfanyl)-N′-hydroxy-1,2,5-oxadiazole-3-carboximidamide]",–,–,188,169,341
"ON=C(Nc1ccc(F)c(Br)c1)c1nonc1SCC1CCOCC1 [Example 162, N-(3-bromo-4-fluorophenyl)-N′-hydroxy-4-[(tetrahydro-2H-pyran-4-ylmethyl)sulfanyl]-1,2,5-oxadiazole-3-carboximidamide]",–,–,167,111,322
"ON=C(Nc1ccc(F)c(Br)c1)c1nonc1SCCN1CCNCC1 [Example 163, N-(3-bromo-4-fluorophenyl)-N′-hydroxy-4-[(2-piperazin-1-ylethyl)sulfanyl]-1,2,5-oxadiazole-3-carboximidamide]",–,–,181,161,405
"CN1CCN(CCSc2nonc2C(=NO)Nc2ccc(F)c(Br)c2)CC1 [Example 164, N-(3-bromo-4-fluorophenyl)-N′-hydroxy-4-{[2-(4-methvlpiperazin-1-yl)ethyl]sulfanyl}-1,2,5-oxadiazole-3-carboximidamide]",62.2,–,91.5,–,246
"OC[C@@H](O)CSc1nonc1/C(=N/O)Nc1ccc(F)c(C(F)(F)F)c1 [Example 165, 4-{[(2R)-2,3-dihydroxypropyl]sulfanyl}-N-[4-fluoro-3-(trifluoromethyl)phenyl]-N′-hydroxy-1,2,5-oxadiazole-3-carboximidamide]",126,–,130,–,159
"OC[C@H](O)CSc1nonc1/C(=N/O)Nc1ccc(F)c(C(F)(F)F)c1 [Example 166, 4-{[(2S)-2,3-dihydroxypropyl]sulfanyl}-N-[4-fluoro-3-(trifluoromethyl)phenyl]-N′-hydroxy-1,2,5-oxadiazole-3-carboximidamide]",126,–,114,–,138
"OC[C@H](O)CSc1nonc1/C(=N/O)Nc1ccc(F)c(C(F)F)c1 [Example 167, N-[3-(difluoromethyl)-4-fluorophenyl]-4-{[(2S)-2,3-dihydroxypropyl]sulfanyl}-N′-hydroxy-1,2,5-oxadiazole-3-carboximidamide]",142,–,110,–,97.3
"OC[C@H](O)CSc1nonc1/C(=N/O)Nc1ccc(F)c(Cl)c1 [Example 170, N-(3-chloro-4-fluorophenyl)-4-{[(2S)-2,3-dihydroxypropyl]sulfanyl}-N′-hydroxy-1,2,5-oxadiazole-3-carboximidamide]",68.4,–,132,–,110
"ON=C(Nc1ccc(F)c(Br)c1)c1nonc1SCCn1ccnc1 [Example 172, N-(3-bromo-4-fluorophenyl)-N′-hydroxy-4-{[2-(1H-imidazol-1-yl)ethyl]sulfanyl}-1,2,5-oxadiazole-3-carboximidamide]",–,–,47.5,78.6,43.4
"CC(CO)(CO)NC(=O)CSc1nonc1/C(=N/O)Nc1ccc(F)c(Br)c1 [Example 174, 2-({4-[N-(3-bromo-4-fluorophenyl)-N′-hydroxycarbamimidoyl]-1,2,5-oxadiazol-3-yl}sulfanyl)-N-[2-hydroxy-1-(hydroxymethyl)-1-methylethyl]acetamide]",82.7,–,113,–,63.6
"CC(O)C(CO)NC(=O)CSc1nonc1/C(=N/O)Nc1ccc(F)c(Br)c1 (stereo not drawn) [Example 176, 2-({4-[N-(3-bromo-4-fluorophenyl)-N′-hydroxycarbamimidoyl]-1,2,5-oxadiazol-3-yl}sulfanyl)-N-[2-hydroxy-1-(hydroxymethyl)propyl]acetamide]",116,–,182,–,127
"O=C(CSc1nonc1/C(=N/O)Nc1ccc(F)c(Br)c1)N[C@H]1C[C@@H](O)[C@@H](O)C1 [Example 177, 2-({4-[N-(3-bromo-4-fluorophenyl)-N′-hydroxycarbamimidoyl]-1,2.5-oxadiazol-3-yl}sulfanyl)-N-[(1r,3R,4S)-3,4-dihydroxycyclopentyl]acetamide]",97.3,–,411,–,469
"CC(=O)N[C@@H](C)CSc1nonc1/C(=N/O)Nc1ccc(F)c(C#N)c1 [Example 180, N-[(1S)-2-({4-[N-(3-cyano-4-fluorophenyl)-N′-hydroxycarbamimidoyl]-1,2,5-oxadiazol-3-yl}sulfanyl)-1-methylethyl]acetamide]",196,–,309,–,426
"CS(=O)(=O)NCCSc1nonc1/C(=N/O)Nc1ccc(F)c(C(F)F)c1 [Example 183, N-[3-(difluoromethyl)-4-fluorophenyl]-N′-hydroxy-4-({2-[(methylsulfonyl)amino]ethyl}sulfanyl)-1,2,5-oxadiazole-3-carboximidamide]",52.5,–,25.6,–,58.2
"CS(=O)(=O)NCCSc1nonc1/C(=N/O)Nc1ccc(F)c(Cl)c1 [Example 184, N-(3-chloro-4-fluorophenyl)-N′-hydroxy-4-({2-[(methylsulfonyl)amino]ethyl}sulfanyl)-1,2,5-oxadiazole-3-carboximidamide]",50.9,–,16.1,–,47.4
"N#Cc1cc(N/C(=N\O)c2nonc2SCC(=O)NC2COC2)ccc1F [Example 186, 2-({4-[N-(3-cyano-4-fluorophenyl)-N′-hydroxycarbamimidoyl]-1,2,5-oxadiazol-3-yl}sulfanyl)-N-oxetan-3-ylacetamide]",180,–,412,–,322
"N#Cc1cc(N/C(=N\O)c2nonc2SCCNC(=O)[C@H]2CC2(F)F)ccc1F [Example 187, (1R)-N-[2-({4-[N-(3-cyano-4-fluorophenyl)-N′-hydroxycarbamimidoyl]-1,2,5-oxadiazol-3-yl}sulfanyl)ethyl]-2,2-difluorocyclopropanecarboxamide]",86,–,140,–,272
"N#Cc1cc(N/C(=N\O)c2nonc2SCCNC(=O)[C@@H]2CC2(F)F)ccc1F [Example 188, (1S)-N-[2-({4-[N-(3-cyano-4-fluorophenyl)-N′-hydroxycarbamimidoyl]-1,2,5-oxadiazol-3-yl}sulfanyl)ethyl]-2,2-difluorocyclopropanecarboxamide]",87.9,–,87.7,–,173
"CN(C)CCSc1nsnc1/C(=N/O)Nc1ccc(F)c(Br)c1 [Example 209, N-(3-bromo-4-fluorophenyl)-4-{[2-(dimethylamino)ethyl]sulfanyl}-N′-hydroxy-1,2,5-thiadiazole-3-carboximidamide]",1280,–,770,–,968
